Experimental data reported in patent US5852210A, “Cinnamic acid derivatives” (G. D. Searle & Co., priority 1997, dated 1998).
Counter-ions that a name gives are not always drawn.

Key:
[1] = target: T1, Human vitronectin receptor (αv β3) (Homo sapiens, UniProt P05106+P06756); experiment: Vitronectin adhesion assay (solid phase receptor assay, αvβ3); type: binding; settings: inhibition of binding of biotinylated human vitronectin (1 nM) to purified receptor; Table I; read-out: AvB3 IC50
T1 construct: Human vitronectin receptor (αv β3) was purified from human placenta; from tissue; host or cells: human placenta
Experimental: (§1) The activity of the compounds of the present invention was tested in the following assays.
Human vitronectin receptor (αv β3) was purified from human placenta as previously described [Pytela et al., Methods in Enzymology, 144:475-489 (1987)]. Human vitronectin was purified from fresh frozen plasma as previously described [Yatohgo et al., Cell Structure and Function, 13:281-292 (1988)]. Biotinylated human vitronectin was prepared by coupling NHS-biotin from Pierce Chemical Company (Rockford, Ill.) to purified vitronectin as previously described [Charo et al., J. Biol. Chem., 266(3):1415-1421 (1991)]. Assay buffer, OPD substrate tablets, and RIA grade BSA were obtained from Sigma (St. Louis, Mo.). Anti-biotin antibody was obtained from Calbiochem (La Jolla, Calif.). Linbro microtiter plates were obtained from Flow Labs (McLean, Va.). ADP reagent was obtained from Sigma (St. Louis, Mo.).
(§2) Solid Phase Receptor Assays
This assay was essentially the same as previously reported [Niiya et al., Blood, 70:475-483 (1987)]. The purified human vitronectin receptor (αv β3) was diluted from stock solutions to […] in Tris-buffered saline containing 1.0 mM Ca^++, Mg^++, and Mn^++, pH 7.4 (TBS^+++). The diluted receptor was immediately transferred to Linbro microtiter plates at 100 μL/well (100 ng receptor/well). The plates were sealed and incubated overnight at 4° C. to allow the receptor to bind to the wells. All remaining steps were at room temperature. The assay plates were emptied and 200 μL, of 1% RIA grade BSA in TBS^+++ (TBS^+++ /BSA) were added to block exposed plastic surfaces. Following a 2 hour incubation, the assay plates were washed with TBS^+++ using a 96 well plate washer. Logarithmic serial dilution of the test compound and controls were made starting at a stock concentration of 2 mM and using 2 nM biotinylated vitronectin in TBS^+++ /BSA as the diluent. This premixing of labeled ligand with test (or control) ligand, and subsequent transfer of 50 μL aliquots to the assay plate was carried out with a CETUS Propette robot; the final concentration of the labeled ligand was 1 nM and the highest concentration of test compound was 1.0×10^-4 M. The competition occurred for two hours after which all wells were washed with a plate washer as before. Affinity purified horseradish peroxidase labeled goat anti-biotin antibody was diluted 1:3000 in TBS^+++ /BSA and 125 μL were added to each well. After 30 minutes, the plates were washed and incubated with OPD/H2 O2 substrate in 100 mM/L Citrate buffer, pH 5.0. The plate was read with a microtiter plate reader at a wavelength of 450 nm and when the maximum-binding control wells reached an absorbance of about 1.0, the final A450 were recorded for analysis. The data were analyzed using a macro written for use with the EXCEL™ spreadsheet program. The mean, standard deviation, and % CV were determined for duplicate concentrations. The mean A450 values were normalized to the mean of four maximum-binding controls (no competitor added) (B-MAX). The normalized values were subjected to a four parameter curve fit algorithm [Rodbard et al., Int.

[2] = target: T2, Human fibrinogen receptor (αIIb β3) (Homo sapiens, UniProt P05106+P08514); experiment: Purified IIb/IIIa receptor assay (solid phase receptor assay); settings: inhibition of binding of biotinylated human vitronectin (1 nM) to purified receptor; Table I
T2 construct: Human fibrinogen receptor (αIIb β3) was purified from outdated platelets; from tissue; host or cells: human outdated platelets
Experimental: as §1
Human fibrinogen receptor (αIIb β3) was purified from outdated platelets. (Pytela, R., Pierschbacher, M. D., Argraves, S., Suzuki, S., and Rouslahti, E. "Arginine-Glycine-Aspartic acid adhesion receptors", Methods in Enzymology 144(1987):475-489.) Human vitronectin was purified from fresh frozen plasma as described in Yatohgo, T., Izumi, M., Kashiwagi, H., and Hayashi, M., "Novel purification of vitronectin from human plasma by heparin affinity chromatography," Cell Structure and Function 13(1988):281-292. Biotinylated human vitronectin was prepared by coupling NHS-biotin from Pierce Chemical Company (Rockford, Ill.) to purified vitronectin as previously described. (Charo, I. F., Nannizzi, L., Phillips, D. R., Hsu, M. A., Scarborough, R. M., "Inhibition of fibrinogen binding to GP IIb/IIIa by a GP IIIa peptide", J. Biol. Chem. 266(3) (1991): 1415-1421.) Assay buffer, OPD substrate tablets, and RIA grade BSA were obtained from Sigma (St. Louis, Mo.). Anti-biotin antibody was obtained from Calbiochem (La Jolla, Calif.). Linbro microtiter plates were obtained from Flow Labs (McLean, Va.). ADP reagent was obtained from Sigma (St. Louis, Mo.).
as §2
This assay is essentially the same reported in Niiya, K., Hodson, E., Bader, R., Byers-Ward, V. Koziol, J. A., Plow, E. F. and Ruggeri, Z. M., "Increased surface expression of the membrane glycoprotein IIb/IIIa complex induced by platelet activation: Relationships to the binding of fibrinogen and platelet aggregation", Blood 70 (1987):475-483. The purified human fibrinogen receptor (αIIb β3) was diluted from stock solutions to 1.0 μg/mL in Tris-buffered saline containing 1.0 mM Ca^++, Mg^++, and Mn^++, pH 7.4 (TBS^+++). The diluted receptor was immediately transferred to Linbro microtiter plates at 100 μL/well (100 ng receptor/well). The plates were sealed and incubated overnight at 4° C. to allow the receptor to bind to the wells. All remaining steps were at room temperature. The assay plates were emptied and 200 μL of 1% RIA grade BSA in TBS^+++ (TBS^+++ /BSA) were added to block exposed plastic surfaces. Following a 2 hour incubation, the assay plates were washed with TBS^+++ using a 96 well plate washer. Logarithmic serial dilution of the test compound and controls were made starting at a stock concentration of 2 mM and using 2 nM biotinylated vitronectin in TBS^+++ /BSA as the diluent. This premixing of labeled ligand with test (or control) ligand, and subsequent transfer of 50 μL aliquots to the assay plate was carried out with a CETUS Propette robot; the final concentration of the labeled ligand was 1 nM and the highest concentration of test compound was 1.0×10^-4 M. The competition occurred for two hours after which all wells were washed with a plate washer as before. Affinity purified horseradish peroxidase labeled goat anti-biotin antibody was diluted 1:3000 in TBS^+++ /BSA and 125 μL were added to each well. After 30 minutes, the plates were washed and incubated with […]/H2 O2 substrate in 100 mM/L citrate buffer, pH 5.0. The plate was read with a microtiter plate reader at a wavelength of 450 nm and when the maximum-binding control wells reached an absorbance of about 1.0, the final A450 were recorded for analysis. The data were analyzed using a macro written for use with the EXCEL™ spreadsheet program. The mean, standard deviation, and % CV were determined for duplicate concentrations. The mean A450 values were normalized to the mean of four maximum-binding controls (no competitor added) (B-MAX). The normalized values were subjected to a four parameter curve fit algorithm, [Robard et al., Int.

T1 sequence (P06756 31-889 limits assumed): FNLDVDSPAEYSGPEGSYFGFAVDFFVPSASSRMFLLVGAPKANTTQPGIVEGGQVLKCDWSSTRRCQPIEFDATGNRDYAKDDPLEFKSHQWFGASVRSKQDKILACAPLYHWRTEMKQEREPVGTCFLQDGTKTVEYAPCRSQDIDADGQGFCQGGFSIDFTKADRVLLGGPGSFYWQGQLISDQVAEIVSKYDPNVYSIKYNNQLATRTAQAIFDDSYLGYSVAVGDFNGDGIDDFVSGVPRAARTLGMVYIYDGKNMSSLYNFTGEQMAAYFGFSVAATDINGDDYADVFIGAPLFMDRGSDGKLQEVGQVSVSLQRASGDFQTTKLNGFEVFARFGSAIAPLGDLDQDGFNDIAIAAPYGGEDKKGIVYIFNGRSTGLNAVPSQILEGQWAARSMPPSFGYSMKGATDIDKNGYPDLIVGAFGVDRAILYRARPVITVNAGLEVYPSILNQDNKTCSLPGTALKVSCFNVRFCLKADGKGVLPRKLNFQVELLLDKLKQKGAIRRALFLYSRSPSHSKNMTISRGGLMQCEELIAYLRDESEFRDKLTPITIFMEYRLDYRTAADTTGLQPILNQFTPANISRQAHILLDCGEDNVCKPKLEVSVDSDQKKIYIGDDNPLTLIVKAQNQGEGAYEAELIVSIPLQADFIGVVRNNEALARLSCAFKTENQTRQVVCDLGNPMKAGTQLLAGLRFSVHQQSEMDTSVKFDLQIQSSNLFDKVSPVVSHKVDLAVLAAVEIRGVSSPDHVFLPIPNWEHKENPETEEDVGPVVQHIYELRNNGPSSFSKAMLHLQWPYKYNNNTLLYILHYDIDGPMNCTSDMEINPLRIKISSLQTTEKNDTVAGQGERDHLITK
T1 sequence (P06756 891-1048 limits assumed): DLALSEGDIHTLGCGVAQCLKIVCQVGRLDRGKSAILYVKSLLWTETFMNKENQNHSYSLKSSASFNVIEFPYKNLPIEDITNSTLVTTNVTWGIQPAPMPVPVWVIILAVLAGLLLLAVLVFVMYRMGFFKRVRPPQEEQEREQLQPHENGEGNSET
T1 sequence (P05106 27-788): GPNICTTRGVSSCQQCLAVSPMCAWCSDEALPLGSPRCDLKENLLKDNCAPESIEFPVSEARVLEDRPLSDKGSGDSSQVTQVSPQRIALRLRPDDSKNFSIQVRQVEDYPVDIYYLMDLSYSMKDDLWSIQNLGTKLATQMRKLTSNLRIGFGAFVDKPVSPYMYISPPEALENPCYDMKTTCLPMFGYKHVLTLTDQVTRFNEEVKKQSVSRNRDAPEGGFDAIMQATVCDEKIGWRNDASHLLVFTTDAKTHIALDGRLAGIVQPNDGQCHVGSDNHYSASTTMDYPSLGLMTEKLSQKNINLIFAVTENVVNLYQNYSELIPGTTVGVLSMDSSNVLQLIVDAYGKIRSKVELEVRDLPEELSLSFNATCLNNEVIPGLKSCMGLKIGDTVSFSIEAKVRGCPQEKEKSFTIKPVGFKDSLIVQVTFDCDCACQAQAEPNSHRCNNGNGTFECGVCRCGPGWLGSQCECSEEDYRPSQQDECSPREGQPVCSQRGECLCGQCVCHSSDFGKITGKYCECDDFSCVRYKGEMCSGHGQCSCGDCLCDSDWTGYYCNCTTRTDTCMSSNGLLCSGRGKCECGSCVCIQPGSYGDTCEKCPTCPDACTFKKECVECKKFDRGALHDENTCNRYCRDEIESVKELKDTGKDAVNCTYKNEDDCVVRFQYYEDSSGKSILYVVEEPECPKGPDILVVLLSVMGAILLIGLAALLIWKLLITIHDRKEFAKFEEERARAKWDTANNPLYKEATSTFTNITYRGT
T2 sequence (P08514 32-887 limits assumed): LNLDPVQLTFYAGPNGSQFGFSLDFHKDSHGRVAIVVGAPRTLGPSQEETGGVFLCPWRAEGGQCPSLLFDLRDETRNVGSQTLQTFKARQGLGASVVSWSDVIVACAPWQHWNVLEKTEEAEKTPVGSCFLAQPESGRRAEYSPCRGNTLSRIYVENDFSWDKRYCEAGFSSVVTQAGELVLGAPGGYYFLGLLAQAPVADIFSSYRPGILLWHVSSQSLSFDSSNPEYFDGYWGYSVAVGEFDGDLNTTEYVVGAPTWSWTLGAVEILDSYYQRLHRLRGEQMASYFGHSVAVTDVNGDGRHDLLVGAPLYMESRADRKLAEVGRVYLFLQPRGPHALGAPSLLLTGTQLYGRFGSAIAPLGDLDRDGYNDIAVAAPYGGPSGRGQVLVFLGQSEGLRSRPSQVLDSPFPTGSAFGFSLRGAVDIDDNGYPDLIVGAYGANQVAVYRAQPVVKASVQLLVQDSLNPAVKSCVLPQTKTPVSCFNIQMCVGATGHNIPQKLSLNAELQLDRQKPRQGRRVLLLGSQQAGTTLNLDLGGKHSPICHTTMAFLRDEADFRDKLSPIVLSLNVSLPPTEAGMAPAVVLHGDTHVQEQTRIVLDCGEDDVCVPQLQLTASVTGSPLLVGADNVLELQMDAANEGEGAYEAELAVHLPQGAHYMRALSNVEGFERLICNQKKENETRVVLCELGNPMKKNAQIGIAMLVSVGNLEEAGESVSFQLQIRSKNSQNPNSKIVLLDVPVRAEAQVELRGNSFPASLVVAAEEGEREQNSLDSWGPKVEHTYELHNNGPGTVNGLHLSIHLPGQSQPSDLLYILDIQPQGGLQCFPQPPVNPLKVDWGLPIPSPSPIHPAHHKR
T2 sequence (P08514 891-1039 limits assumed): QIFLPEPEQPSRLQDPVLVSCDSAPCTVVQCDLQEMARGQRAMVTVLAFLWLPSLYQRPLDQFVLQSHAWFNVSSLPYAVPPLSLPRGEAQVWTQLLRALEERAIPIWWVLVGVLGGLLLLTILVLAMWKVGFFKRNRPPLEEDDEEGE
T2 sequence (P05106 27-788): as the sequence (P05106 27-788) above

Structure (SMILES)	IC50 [1] [nM]	IC50 [2] [nM]
NC(=O)N=C(N)Nc1cccc(C(=O)Nc2ccc(/C=C/C(=O)O)cc2)c1 [Example 52, 3-[4-[[[3-[[amino[(aminocarbonyl)imino)methyl]amino]phenyl]carbonyl]amino]phenyl]propenoic acid, trifluoroacetate salt]	72.5	133
N=C(N)Nc1cc(C(=O)Nc2ccc(/C=C/C(=O)O)cc2)cc(C(F)(F)F)c1 [Example 53, 3-[4-[[[3-[(aminoiminomethyl)amino]-5-(trifluoromethyl)-phenyl]carbonyl]amino]phenyl]propenoic acid, trifluoroacetate salt]	7.89	232
N=C(N)Nc1cc(C(=O)Nc2ccc(/C=C/C(=O)O)c(Cl)c2)cc(C(F)(F)F)c1 [Example 54, 3-[4-[[[3-[(aminoiminomethyl)amino]-5-(trifluoromethyl)phenyl]carbonyl]amino]-2-chlorophenyl]propenoic acid, trifluoroacetate salt]	12.5	686
COc1cc(NC(=O)c2cc(NC(=N)N)cc(C(F)(F)F)c2)ccc1/C=C/C(=O)O [Example 55, 3-[4-[[[3-[(aminoiminomethyl)amino]-5-(trifluoromethyl)phenyl]carbonyl]amino]-2-methoxyphenyl]propenoic acid, trifluoroacetate salt]	3.62	432
C/C(=C\C(=O)O)c1ccc(NC(=O)c2cccc(NC(=N)N)c2)cc1 [Example 59, 3-[4-[[[3-[(aminoiminomethyl)amino]phenyl]carbonyl]amino]phenyl]-2-butenoicacid, trifluoroacetate salt]	1270	5140
N=C(N)Nc1cccc(C(=O)Nc2ccc(/C=C(\NC(=O)c3ccccc3)C(=O)O)cc2)c1 [Example 60, 3-[4-[[[3-[(aminoiminomethyl)amino]phenyl]carbonyl]amino]phenyl]-2-[(phenylcarbonyl)amino]propenoic acid, trifluoroacetate salt]	67.3	440
O=C(O)/C=C/c1cccc(CNC(=O)c2cccc(NC(=O)NCc3ccccc3)c2)c1 [Example 64, 3-[3-[[[[3-[[[(phenylmethyl)amino]carbonyl]amino]phenyl]carbonyl]amino]methyl]phenyl]propenoic acid, trifluoroacetate salt]	2180	16200

Continued, values first:

IC50 [1] [nM]	IC50 [2] [nM]	Structure (SMILES)
7.6	15.9	N=C(N)Nc1cccc(C(=O)Nc2ccc(/C=C/C(=O)O)c(/C=C/C(=O)O)c2)c1 [Example 42, 3-[4-[[[3-[(aminoiminomethyl)amino]phenyl]carbonyl]amino]-2-(2-carboxyethenyl)phenyl]propenoic acid, trifluoroacetate salt]
30.2	36.2	N#Cc1cc(NC(=O)c2cccc(NC(=N)N)c2)ccc1/C=C/C(=O)O [Example 44, 3-[4-[[[3-[(aminoiminomethyl)amino]phenyl]carbonyl]amino]-2-cyanophenyl]propenoic acid, trifluoroacetate salt]
6.7	759	CNC(=O)c1cc(NC(=O)c2cccc(NC3=NCCCN3)c2)ccc1/C=C/C(=O)O [Example 45, 3-[2-[(methylamino)carbonyl]-4-[[[3-[(1,4,5,6-tetrahydropyrimidin-2-yl)amino]phenyl]carbonyl]amino]phenyl]propenoic acid, bis(trifluoroacetate) salt]
7.19	2600	CCOC(=O)Nc1cc(NC(=O)c2cccc(NC3=NCCCN3)c2)ccc1/C=C/C(=O)O [Example 46, 3-[2-[(ethoxycarbonyl)amino]-4-[[[3-[(1,4,5,6-tetrahydropyrimidin-2-yl)amino]phenyl]carbonyl]amino]phenyl]propenoic acid, trifluoroacetate salt]
2.18	661	O=C(O)/C=C/c1ccc(NC(=O)c2cccc(NC3=NCCCN3)c2)cc1 [Example 49, 3-[4-[[[3-[(1,4,5,6-tetrahydropyrimidin-2-yl)amino]phenyl]carbonyl]amino]phenyl]propenoic acid, trifluoroacetate salt]
0.43	772	COc1cc(NC(=O)c2cccc(NC3=NCCCN3)c2)ccc1/C=C/C(=O)O [Example 50, 3-[2-methoxy-4-[[[3-[(1,4,5,6-tetrahydropyrimidin-2-yl)amino]phenyl]carbonyl]amino]phenyl]propenoic acid, trifluoroacetate salt]
4.03	656	O=C(O)/C=C/c1ccc(NC(=O)c2cccc(NC3=NCCCS3)c2)cc1 [Example 56, 3-[4-[[[3-[(5,6-dihydro-4H-1,3-thiazin-2-yl)amino]phenyl]carbonyl]amino]phenyl]propenoic acid, trifluoroacetate salt]
25.8	12800	Cc1cc(/C=C/C(=O)O)cc(C)c1NC(=O)c1cccc(NC2=NCCCS2)c1 [Example 57, 3-[4-[[[3-[(5,6-dihydro-4H-1,3-thiazin-2-yl)amino]phenyl]carbonyl]amino]3,5-dimethylphenyl]propenoic acid, trifluoroacetate salt]
2.04	23300	O=C(O)/C=C/c1cccc(CNC(=O)c2cccc(NC3=NCCCN3)c2)c1 [Example 62, 3-[3-[[[[3-[(1,4,5,6-tetrahydropyrimidin-2-yl)amino]phenyl]carbonyl]amino]methyl]phenyl]propenoic acid, monohydrochloride]
